Experimental data: patent US5972357A, “Healthy foods and cosmetics” (Kikkoman Corporation, priority 1996, dated 1999)
Structures can show the parent of a compound that is named as a salt. Where two headings read alike, the source gives them in different places.

Key:
gastric ulcer [1] = experiment: anti-ulcer test against indomethacin-induced gastric ulcer; type: in vivo, Wistar/ST male rats; conditions: 200 mg/kg oral; for Length of ulcer: 30 minutes before indomethacin (50 mg/kg s.c.), control 47.75 ± 6.08; for Suppression rate: indomethacin ulcer, vs. control
Procedure: Ulcer was induced in Wistar/ST male rats having a weight of about 200 g (6 week-old) by indomethacin as a gastric ulcer inducing agent, and the anti-ulcer effects of the test samples were examined in the following six groups to which test samples were administered.
(§1) Each group comprises six rats.
______________________________________
(§2) Group 1: (control) physiological saline
Group 2: (comparative) cetraxate hydrochloride
Group 3: (the present invention) garcinol
Group 4: (the present invention) garcinol
Group 5: (the present invention) garcinol
Group 6: (the present invention) isogarcinol
In this connection, physiological saline containing 1% sodium carboxymethylcellulose was used as the control, and cetraxate hydrochloride (trade name "Neuer®S", Daiichi Pharmaceuticals Co., Ltd.) which is clinically used as an anti-ulcer agent was used as the comparative sample. The cetraxate hydrochloride insoluble in water was ground into fine powder with a mortar and a pestle and used as a suspension in a 1% sodium carboxymethylcellulose solution. Also, garcinol and isogarcinol in the form of fine powder were used as the suspensions in a 1% sodium carboxymethylcellulose solution in the concentrations which are the doses in the groups. In this connection, garcinol and isogarcinol used in the section of the present invention were those obtained in Referential Examples 1 and 2, respectively.
Experiment was carried out according to the method described by Yamahara et al. (see […] ZASSHI, 114, 401, 1994) which had been slightly modified. That is to say, indomethacin (50 mg/kg) was suspended in 1% sodium carboxymethylcellulose containing 0.1% Tween 20 (Sigma) and injected subcutaneously into the back of 24 hour fasted rats in an amount of 1 ml/rat. The samples in the six sections were orally administered at 30 minutes before administration of indomethacin. After 7 hours from the administration of indomethacin, rats were bleeded to death under anesthetization with nembutal, and stomach was isolated. A phosphate buffer (10 ml) containing 10% formalin was injected into the stomach, which was cut open after 10 minutes, and the length of lesion caused in the glandular stomach portion was defined as the lesion index, which was measured in the mm unit to evaluate the anti-ulcer effect. The suppression rate (%) in Table 1 means the value in which the difference of the length (mm) of ulcer in each group subtracted from the average length, 47.75 (mm) of ulcer in the control was divided with the average length, 47.75 (mm) of ulcer in the control. The larger the value, the stronger the anti-ulcer activity.

bovine serum albumin [2] = conditions: bovine serum albumin/d-fructose, 120 h, 1000 µM, pH 7.4
Procedure: (§3) A solution containing bovine serum albumin (4 mg/ml), 500 mM D-fructose and 200 mM potassium phosphate buffer (pH 7.4) was aseptically prepared. To the solution was added 0.1 mM of a test substance. The substance insoluble in water was added as an ethanolic solution so as the final concentration of ethanol to be less than 1%. After incubation of these solutions at 37° C. for 5 days, equivalent volume of a cold 10% trichloroacetic acid solution was added to the solution to precipitate proteins. The precipitate was collected by centrifugation, further washed with a cold 5% trichloroacetic acid solution, and dissolved again in a 200 mM potassium phosphate buffer. The solution was diluted appropriately with distilled water, and the fluorescence intensity at 425 nm was measured with an excitation wave length at 350 nm in a fluorescence spectrophotometer (Shimadzu Seisakusho, Ltd.). The inhibition activity was calculated from the following equation.
(§4) Inhibition activity (%)=(Fc-Fs)/(Fc-Fb)×100
(§5) Fs: fluorescence intensity in the presence of test substance;
(§6) Fc: fluorescence intensity in the absence of test substance;
(§7) Fb: fluorescence intensity in the absence of fructose.

gastric ulcer [3] = experiment: anti-ulcer test against stress ulcer (restrained immersion into water); type: in vivo, Wistar/ST male rats; conditions: 200 mg/kg oral
Procedure: Gastric ulcer was induced in Wistar/ST male rats having a weight of about 200 g (6 w) by the stress of restrained immersion into water and the anti-ulcer effects of the test samples were examined in the following groups to which test samples were administered.
as §1, §2
Group 2: (comparative) cetraxate hydrochloride 200 mg/kg
Group 3: (the present invention) garcinol 200 mg/kg
In this connection, the test samples in the control, comparative group and the present invention group were prepared in the same manner as in Experimental Example 9.
Rats having fasted for 24 hours were locked up in a restrained dipping cage after 30 minutes from the oral administration of respective test samples. Next, rats were stressed by dipping the cage into water at 23° C. for 7 hours, and bleeded to death under anesthetization with nembutal, and stomach was isolated. A phosphate buffer (10 ml) containing 10% formalin was injected into the stomach, which was cut open after 10 minutes, and the length of lesion caused in the glandular stomach portion was defined as the lesion index, which was measured in the mm unit to evaluate the anti-ulcer effect.
The method for calculating the suppression rate (%) and the meaning of it has been described in Experimental Example 9.

bovine serum albumin [4] = experiment: Maillard reaction inhibiting activity (bovine serum albumin/D-fructose)
Procedure: as §3, §4, §5, §6, §7

[5] = anti-oxidation activity (linoleic acid/β-carotene emulsion, autoxidation); conditions: 0.0005% test substance, pH 7.0, 25° C., 460 nm; lesser ratio = stronger
Procedure: The anti-oxidation activities was evaluated according to the method by A. Ben Aziz et al. […] That is to say, an emulsion of linoleic acid and β-carotene was first prepared with Tween 20 (Sigma) and adjusted to pH 7.0 with 0.1 M trishydroxyaminomethane-hydrochloride. […] During the reaction, the color degradation of β-carotene in association with the autoxidation of linoleic acid was measured with the passage of time as the decreased value of the optical density at 460 nm with a spectrophotometer. […] The antioxidant activity was measured as a ratio of the decreasing rate of absorbance in the presence of the substance to be tested to the decreasing rate of absorbance in the absence of the antioxidant.

[6] = anti-oxidation activity in a lipid oxidation process promoted by a metal ion (copper sulfate); conditions: 5 μM copper sulfate added; lesser ratio = stronger
Procedure: The anti-oxidation activities was evaluated according to the method by A. Ben Aziz et al. (see Phytochemistry, 10, 1445, 1971). That is to say, an emulsion of linoleic acid and β-carotene was first prepared with Tween 20 (Sigma) and adjusted to pH 7.0 with 0.1 M trishydroxyaminomethane-hydrochloride. To the emulsion was added 0.0005% of a substance to be tested, and the mixture was reacted at 25° C.
During the reaction, the color degradation of β-carotene in association with the autoxidation of linoleic acid was measured with the passage of time as the decreased value of the optical density at 460 nm with a spectrophotometer.
The substance to be tested was a garcinal preparation obtained in Referential Example 1, and vitamin E and (+)-catechin were used as Comparative Example. The antioxidant activity was measured as a ratio of the decreasing rate of absorbance in the presence of the substance to be tested to the decreasing rate of absorbance in the absence of the antioxidant. That is, the substance is judged to have an antioxidant activity when the ratio is less than 1, and thus it is predicated that the lesser the ratio, the stronger the antioxidant activity.
The oxidation process of linoleic acid in Experimental Example 1 is promoted by a metal ion. If 5 μM of copper sulfate is added to the reaction system, the color-degradation rate of β-carotene is promoted by about 30%. When garcinol was added to this system, the ratio of the decreasing rate of absorbance was 0.57. In this connection, it was 0.13 for vitamin E and 0.84 for (+)-catechin.

[7] = DPPH radical scavenging activity; conditions: 0.0002% test substance, 1.0×10^-4 M DPPH, 25° C., 1 hour, 528 nm
Procedure: The 1,1-diphenyl-2-picrylhydrazyl (DPPH) radical scavenging activity was tested with a garcinol preparation prepared in the similar manner as described in Referential Example 1. That is to say, a 1.0×10^-4 M solution (50% ethanolic) of DPPH was prepared, 0.0002% of a test substance was added, and the decrease of optical density at 528 nm was measured after 1 hour reaction at 25° C. for one hour. In this case, ascorbic acid was used as a standard, the decrease of the absorbance was expressed as 100, and the radical scavenging activity of the test substance was measured as equivalences to ascorbic acid. In this connection, a garcinol preparaion used as the test substance, and vitamin E and (+)-catechin were used as references.

[8] = superoxide scavenging activity test with phenazine methosulfate; conditions: 40 μM final concentration
Procedure: The active oxygen scavenging activity was evaluated according to the superoxide scavenging activity test with phenazine methosulfate. That is to say, dihydronicotinamide adenine dinucleotide and phenazine methosulfate were first reacted in a buffer at a physiological hydrogen ion concentration. The absorbance at 560 nm of a formazan pigment produced by the reduction of Nitro Blue Tetrazolium with superoxide was measured. […] The ratio of decreases of absorbance was expressed as superoxide scavenging activity.

bovine serum albumin [9] = experiment: suppression of generation of reactive oxygen species in the presence of metal ion (oxidation of bovine serum albumin in Fenton reaction); type: biochemical; conditions: 1 mM test substance, 10 μM copper ion, 20 mM hydrogen peroxide, 4 mg/ml BSA
Procedure: The activity for suppressing the generation of reactive oxygen species in the presence of metal ion was evaluated by measuring the effect for suppressing the oxidation of bovine serum albumin by hydroxyl radical in the Fenton reaction system. That is to say, hydroxyl radical was first produced by divalent copper ion and hydrogen peroxide (Fenton reaction). Bovine serum albumin was oxidized by the hydroxyl radical, and thus carbonyl was produced. The carbonyl was reacted with 2,4-dinitrophenylhydrazine, and determined by measuring the absorbance at 365 nm. […] The ratio of decreases of absorbance was expressed as the activity for suppressing the generation of reactive oxygen species in the presence of metal ion.

bovine lens α-crystallin = experiment: α-crystallin crosslinking polymerization inhibiting activity; type: biochemical; conditions: 0.1 mM, 500 mM D-fructose, pH 7.4, 37° C., 2 weeks
Procedure: The effect of garcinol on bovine lens α-crystallin crosslinking polymerization reaction was evaluated. […] The gel after electrophoresis was stained with Coomassie Brilliant Blue, and the protein amounts in bands were determined with a densitometer. The crosslinking polymerization inhibiting activity of the protein was calculated from the following equation.
Protein polymerization inhibiting activity (%)=(Ps-Pc)/Pc×100
polymerization degree of protein=band density of polymerized protein/band density of monomer protein;
Ps: polymerization degree of protein in the presence of test substance;
Pc: polymerization degree of protein in the absence of test substance.

CC(C)=CC[C@H]1C[C@@]23C[C@@H](CC=C(C)C)C(C)(C)[C@@](CC=C(C)C)(C(=O)C(C(=O)c4ccc(O)c(O)c4)=C2OC1(C)C)C3=O [isogarcinol]
Length of ulcer (gastric ulcer [1]): 22.40 ± 15.3 mm
Suppression rate (gastric ulcer [1]): 53.1%

CC(C)(S)[C@@H](N)C(=O)O [D-penicillamine]
Maillard reaction inhibition activity (bovine serum albumin [2]): 27%

NC[C@H]1CC[C@H](C(=O)Oc2ccc(CCC(=O)O)cc2)CC1 [cetraxate hydrochloride, reference compound]
Length of ulcer (gastric ulcer [1]): 14.30 ± 10.9 mm
Suppression rate (gastric ulcer [1]): 70.1%
Length of ulcer (gastric ulcer [3]; restrained water immersion 23° C., 7 hours, control 44.20 ± 18.10): 18.80 ± 6.02 mm
Suppression rate (gastric ulcer [3]; stress ulcer, vs. control): 57.5%

N=C(N)NN [Aminoguanidine]
Maillard reaction inhibition activity, result in words (bovine serum albumin [4]; 0.1 mM, 37° C., 5 days, pH 7.4): no activity
Maillard reaction inhibition activity (bovine serum albumin [4]; 1 mM, 7200 min): no more than 43%

vitamin E
antioxidant activity (ratio of the decreasing rate of absorbance with to without test substance) [5]: 0.10
ratio of the decreasing rate of absorbance (antioxidant activity with metal ion) [6]: 0.13
DPPH radical scavenging activity (equivalences to ascorbic acid = 100) [7]: 25

O=c1c(O)c(-c2ccc(O)c(O)c2)oc2cc(O)cc(O)c12 [quercetin]
superoxide scavenging rate [8]: 63%
oxidation of bovine serum albumin, result in words (bovine serum albumin [9]): promoted oxidation rather extensively
protein polymerization inhibiting activity (bovine lens α-crystallin): 33%

Oc1cc(O)c2c(c1)O[C@H](c1ccc(O)c(O)c1)[C@@H](O)C2 [(+)-catechin]
antioxidant activity (ratio of the decreasing rate of absorbance with to without test substance) [5]: 0.18
ratio of the decreasing rate of absorbance (antioxidant activity with metal ion) [6]: 0.84
DPPH radical scavenging activity (equivalences to ascorbic acid = 100) [7]: 73
superoxide scavenging rate [8]: 25%
oxidation of bovine serum albumin, result in words (bovine serum albumin [9]): promoted oxidation rather extensively
